The values below come from ChEMBL document CHEMBL5620375, “Tetrahydrobenzo[h]quinoline derivatives as a novel chemotype for dual antileishmanial-antimalarial activity graced with antitubercular activity: Design, synthesis and biological evaluation” (Eur J Med Chem, 2023).

≈ marks a conversion by molar mass, not a printed value.

In this assay the test system is Mycobacterium tuberculosis. The assay is described as follows: Antitubercular activity against multidrug-resistant Mycobacterium tuberculosis ATCC 35822 assessed as inhibition of bacterial growth by microplate alamar blue assay. In kind it is functional.
On to `COc1ccc(OC)c(-c2c3c([nH]c(=O)c2C#N)-c2ccccc2CC3)c1`, for which the MIC – broadly, the least concentration at which growth counts as inhibited – came to 21.8 µM (≈ 7.82 µg/mL). Consider `N#Cc1c(-c2ccc(Cl)cc2Cl)c2c([nH]c1=O)-c1ccccc1CC2`, for which the MIC was 85.4 µM (≈ 31.4 µg/mL).

Consider `COc1ccc(-c2c3c([nH]c(=O)c2C#N)-c2ccccc2CC3)cc1O`, for which the MIC is 45.4 µM (≈ 15.6 µg/mL).

In the case of `COc1ccccc1-c1c2c([nH]c(=O)c1C#N)-c1ccccc1CC2`, the MIC turned out to be 11.9 µM (≈ 3.9 µg/mL). For `N#Cc1c(O)nc2c(c1-c1cccc([N+](=O)[O-])c1)CCc1ccccc1-2` the value was 22.8 µM (≈ 7.82 µg/mL).
